Measured values as given in ChEMBL document CHEMBL1687756 (Antimicrob Agents Chemother, 2010).

Assays:
[1] = Drug level in Beagle dog lymph node axillar at 5 mg/kg, sc after 6 months; format: ADME, organism-based, Canis lupus familiaris; parameters: dose 5 mg/kg, route subcutaneous; conditions: axillary lymph node, read-out: Drug uptake
[2] = Plasma concentration in female Beagle dog at 400 mg/kg administered intramuscularly after 3 months; format: ADME, organism-based, Canis lupus familiaris; parameters: dose 400 mg/kg, route intramuscular; conditions: im
[3] = Drug level in male Beagle dog thymus at 200 mg/kg administered intramuscularly after 3 months; format: ADME, organism-based, Canis lupus familiaris; parameters: dose 200 mg/kg, route intramuscular; conditions: im, read-out: Drug uptake
[4] = Drug level in Beagle dog liver at 5 mg/kg administered intramuscularly after 3 months; format: ADME, organism-based, Canis lupus familiaris; parameters: dose 5 mg/kg, route intramuscular; conditions: im, read-out: Drug uptake
[5] = Drug level in Beagle dog lymph node axillar at 5 mg/kg administered intramuscularly after 3 months; format: ADME, organism-based, Canis lupus familiaris; parameters: dose 5 mg/kg, route intramuscular; conditions: axillary lymph node, im, read-out: Drug uptake
[6] = Drug level in male Beagle dog spleen at 400 mg/kg administered intramuscularly after 1 month; format: ADME, organism-based, Canis lupus familiaris; parameters: dose 400 mg/kg, route intramuscular; conditions: im, read-out: Drug uptake
[7] = Cmax in female dog at 200 mg, sc after 29 days; conditions: in vivo
[8] = Ratio of drug level in lymph node axillar to plasma in Beagle dog at 5 mg/kg, sc after 6 months; format: ADME, organism-based, Canis lupus familiaris; parameters: dose 5 mg/kg, route subcutaneous; conditions: axillary lymph node/plasma
[9] = Tmax in male dog at 400 mg administered intramuscularly after 85 days; conditions: in vivo, im
[10] = Ratio of drug level in spleen to plasma in female Beagle dog at 400 mg/kg administered intramuscularly after 3 months; format: ADME, organism-based, Canis lupus familiaris; parameters: dose 400 mg/kg, route intramuscular; conditions: im
[11] = Plasma concentration in Beagle dog at 5 mg/kg, sc after 3 months; format: ADME, organism-based, Canis lupus familiaris; parameters: dose 5 mg/kg, route subcutaneous
[12] = Ratio of drug level in lymph node popliteal to plasma in Beagle dog at 5 mg/kg, sc after 6 months; format: ADME, organism-based, Canis lupus familiaris; parameters: dose 5 mg/kg, route subcutaneous
[13] = Cmax in female dog at 200 mg administered intramuscularly after 85 days; conditions: in vivo, im
[14] = Drug level in Beagle dog muscle at non-injected site at 5 mg/kg administered intramuscularly after 3 months; format: ADME, organism-based, Canis lupus familiaris, Muscle tissue; parameters: dose 5 mg/kg, route intramuscular; conditions: im, read-out: Drug uptake
[15] = Ratio of drug level in lymph node axillar to plasma in Beagle dog at 5 mg/kg, sc after 3 months; format: ADME, organism-based, Canis lupus familiaris; parameters: dose 5 mg/kg, route subcutaneous; conditions: axillary lymph node/plasma
[16] = Absolute bioavailability in Beagle […] at 5 mg/kg administered intramuscularly after 176 days; format: ADME, organism-based, Canis lupus familiaris; conditions: in vivo, im
[17] = Drug level in Beagle dog lymph node axillar at 5 mg/kg administered intramuscularly after 6 months; format: ADME, organism-based, Canis lupus familiaris; parameters: dose 5 mg/kg, route intramuscular; conditions: axillary lymph node, im, read-out: Drug uptake
[18] = Drug level in female Beagle dog spleen at 400 mg/kg, sc after 3 months; format: ADME, organism-based, Canis lupus familiaris; parameters: dose 400 mg/kg, route subcutaneous; conditions: read-out: Drug uptake
[19] = Cmax in female dog at 400 mg administered intramuscularly after 29 days; conditions: in vivo, im
[20] = Plasma concentration in female Beagle dog at 200 mg/kg, sc after 1 month; format: ADME, organism-based, Canis lupus familiaris; parameters: dose 200 mg/kg, route subcutaneous; conditions: read-out: Drug uptake
[21] = Drug level in Beagle dog lymph node iliac at 5 mg/kg, sc after 1 month; format: ADME, organism-based, Canis lupus familiaris; parameters: dose 5 mg/kg, route subcutaneous; conditions: read-out: Drug uptake
[22] = tested on: Canis familiaris; experiment: Toxicity in Beagle dog assessed as inflammatory signs at 20 mg/kg, sc after 3 months; format: organism-based, Canis lupus familiaris; parameters: dose 20 mg/kg, route subcutaneous; conditions: in vivo, 2191.5 h
[23] = Drug level in Beagle dog thymus at 5 mg/kg administered intramuscularly after 3 months; format: ADME, organism-based, Canis lupus familiaris; parameters: dose 5 mg/kg, route intramuscular; conditions: im, read-out: Drug uptake
[24] = AUC (0 to last) in male dog at 400 mg administered intramuscularly after 29 days; conditions: plasma, im
[25] = Drug level in Beagle dog skin at non-injected site at 5 mg/kg administered intramuscularly after 6 months; format: ADME, organism-based, Canis lupus familiaris, Zone of skin; parameters: dose 5 mg/kg, route intramuscular; conditions: im, read-out: Drug uptake
[26] = (§1) Plasma concentration in Beagle dog at 5 mg/kg administered intramuscularly after 3 months; format: ADME, organism-based, Canis lupus familiaris; parameters: dose 5 mg/kg, route intramuscular; conditions: im
[27] = tested on: Plasma; experiment: as §1; format: ADME, organism-based, Canis lupus familiaris; parameters: dose 5 mg/kg, route intramuscular; conditions: in vivo, im, 2191.5 h, BLD = below limit of detection
[28] = Ratio of drug level in thymus to plasma in male Beagle dog at 400 mg/kg administered intramuscularly after 1 month; format: ADME, organism-based, Canis lupus familiaris; parameters: dose 400 mg/kg, route intramuscular; conditions: im
[29] = Drug level in female Beagle dog thymus at 200 mg/kg administered intramuscularly after 3 months; format: ADME, organism-based, Canis lupus familiaris; parameters: dose 200 mg/kg, route intramuscular; conditions: im, read-out: Drug uptake
[30] = Plasma concentration in male Beagle dog at 200 mg/kg, sc after 1 month; format: ADME, organism-based, Canis lupus familiaris; parameters: dose 200 mg/kg, route subcutaneous
[31] = Drug level in Beagle dog thymus at 5 mg/kg, sc after 3 months; format: ADME, organism-based, Canis lupus familiaris; parameters: dose 5 mg/kg, route subcutaneous; conditions: read-out: Drug uptake
[32] = Tmax in male dog at 400 mg administered intramuscularly after 29 days; conditions: in vivo, im
[33] = Drug level in Beagle dog spleen at 5 mg/kg administered intramuscularly after 6 months; format: ADME, organism-based, Canis lupus familiaris; parameters: dose 5 mg/kg, route intramuscular; conditions: im, read-out: Drug uptake
[34] = Drug level in Beagle dog spleen at 5 mg/kg, sc after 6 months; format: ADME, organism-based, Canis lupus familiaris; parameters: dose 5 mg/kg, route subcutaneous; conditions: read-out: Drug uptake
[35] = Ratio of drug level in thymus to plasma in male Beagle dog at 400 mg/kg, sc after 3 months; format: ADME, organism-based, Canis lupus familiaris; parameters: dose 400 mg/kg, route subcutaneous
[36] = Drug level in Beagle dog skin at non-injected site at 5 mg/kg administered intramuscularly after 3 months; format: ADME, organism-based, Canis lupus familiaris, Zone of skin; parameters: dose 5 mg/kg, route intramuscular; conditions: im, read-out: Drug uptake
[37] = Drug level in male Beagle dog spleen at 200 mg/kg administered intramuscularly after 1 month; format: ADME, organism-based, Canis lupus familiaris; parameters: dose 200 mg/kg, route intramuscular; conditions: im, read-out: Drug uptake
[38] = Ratio of drug level in spleen to plasma in male Beagle dog at 200 mg/kg administered intramuscularly after 1 month; format: ADME, organism-based, Canis lupus familiaris; parameters: dose 200 mg/kg, route intramuscular; conditions: im
[39] = Drug level in Beagle dog lymph node iliac at 5 mg/kg, sc after 3 months; format: ADME, organism-based, Canis lupus familiaris; parameters: dose 5 mg/kg, route subcutaneous; conditions: read-out: Drug uptake
[40] = Drug level in Beagle dog skin at non-injected site at 5 mg/kg, sc after 6 months; format: ADME, organism-based, Canis lupus familiaris, Zone of skin; parameters: dose 5 mg/kg, route subcutaneous; conditions: read-out: Drug uptake
[41] = Cmax in male dog at 200 mg, sc after 85 days; conditions: in vivo
[42] = Plasma concentration in female Beagle dog at 200 mg/kg, sc after 3 months; format: ADME, organism-based, Canis lupus familiaris; parameters: dose 200 mg/kg, route subcutaneous
[43] = Drug level in Beagle dog lymph node mandibular at 5 mg/kg administered intramuscularly after 3 months; format: ADME, organism-based, Canis lupus familiaris; parameters: dose 5 mg/kg, route intramuscular; conditions: im, read-out: Drug uptake
[44] = AUC (0 to infinity) in Beagle dog at 1.25 mg/kg, iv after 2 days; format: ADME, organism-based, Canis lupus familiaris; parameters: dose 1.25 mg/kg, route intravenous, time infinity; conditions: plasma
[45] = Drug level in female Beagle dog spleen at 200 mg/kg, sc after 3 months; format: ADME, organism-based, Canis lupus familiaris; parameters: dose 200 mg/kg, route subcutaneous; conditions: read-out: Drug uptake
[46] = Ratio of drug level in spleen to plasma in female Beagle dog at 200 mg/kg administered intramuscularly after 1 month; format: ADME, organism-based, Canis lupus familiaris; parameters: dose 200 mg/kg, route intramuscular; conditions: im
[47] = Drug level in Beagle dog muscle at non-injected site at 5 mg/kg, sc after 3 months; format: ADME, organism-based, Canis lupus familiaris, Muscle tissue; parameters: dose 5 mg/kg, route subcutaneous; conditions: read-out: Drug uptake
[48] = Ratio of drug level in thymus to plasma in female Beagle dog at 200 mg/kg administered intramuscularly after 3 months; format: ADME, organism-based, Canis lupus familiaris; parameters: dose 200 mg/kg, route intramuscular; conditions: im
[49] = Drug level in female Beagle dog spleen at 200 mg/kg administered intramuscularly after 3 months; format: ADME, organism-based, Canis lupus familiaris; parameters: dose 200 mg/kg, route intramuscular; conditions: im, read-out: Drug uptake
[50] = Drug level in male Beagle dog spleen at 200 mg/kg, sc after 3 months; format: ADME, organism-based, Canis lupus familiaris; parameters: dose 200 mg/kg, route subcutaneous; conditions: read-out: Drug uptake
[51] = Ratio of drug level in spleen to plasma in female Beagle dog at 400 mg/kg, sc after 1 month; format: ADME, organism-based, Canis lupus familiaris; parameters: dose 400 mg/kg, route subcutaneous
[52] = AUC (0 to last) in male dog at 200 mg administered intramuscularly after 85 days; conditions: plasma, im
[53] = Plasma concentration in male Beagle dog at 200 mg/kg, sc after 3 months; format: ADME, organism-based, Canis lupus familiaris; parameters: dose 200 mg/kg, route subcutaneous
[54] = Drug level in male Beagle dog thymus at 400 mg/kg administered intramuscularly after 1 month; format: ADME, organism-based, Canis lupus familiaris; parameters: dose 400 mg/kg, route intramuscular; conditions: im, read-out: Drug uptake
[55] = Plasma concentration in male Beagle dog at 200 mg/kg administered intramuscularly after 3 months; format: ADME, organism-based, Canis lupus familiaris; parameters: dose 200 mg/kg, route intramuscular; conditions: im

concentration at 4383 h [1]: 8.6 ng/g
concentration at 2191.5 h [2]: 20.3 ng/mL
concentration at 2191.5 h [3]: 34.4 ng/g
concentration at 2191.5 h [4]: 20.8 ng/g
concentration at 2191.5 h [5]: 25.5 ng/g
concentration at 730.5 h [6]: 347 ng/g
Cmax [7]: 185 ng/mL
Kp at 4383 h [8]: 6.7
Tmax [9]: 17 h
Kp at 2191.5 h [10]: 2.3
concentration at 2191.5 h [11]: 3.3 ng/mL
Kp at 4383 h [12]: 4.3
Cmax [13]: 1140 ng/mL
concentration at 2191.5 h [14]: 84.1 ng/g
Kp at 2191.5 h [15]: 6.8
bioavailability [16]: 102%
concentration at 4383 h [17]: 12.2 ng/g
concentration at 2191.5 h [18]: 67.5 ng/g
Cmax [19]: 6190 ng/mL
concentration at 730.5 h [20]: 71.8 ng/g
concentration at 730.5 h [21]: 64.9 ng/g
concentration at 2191.5 h [23]: 14.7 ng/g
AUC(0-t) at 696 h [24]: 188 µg·h/mL
concentration at 4383 h [25]: 6.7 ng/g
concentration at 2191.5 h [26]: < 1 ng/mL
Cp [27]: BLD
Kp at 730.5 h [28]: 4
concentration at 2191.5 h [29]: 27.4 ng/g
concentration at 730.5 h [30]: 95 ng/mL
concentration at 2191.5 h [31]: 43.6 ng/g
Tmax [32]: 17 h
concentration at 4383 h [33]: < 5 ng/g
concentration at 4383 h [34]: 7.1 ng/g
Kp at 2191.5 h [35]: 3.5
concentration at 2191.5 h [36]: 12.4 ng/g
concentration at 730.5 h [37]: 133 ng/g
Kp at 730.5 h [38]: 1.8
concentration at 2191.5 h [39]: 16.9 ng/g
concentration at 4383 h [40]: 13.3 ng/g
Cmax [41]: 107 ng/mL
concentration at 2191.5 h [42]: 26.8 ng/mL
concentration at 2191.5 h [43]: 10 ng/g
AUC(0-inf) [44]: 8.66 µg·h/mL
concentration at 2191.5 h [45]: 49.5 ng/g
Kp at 730.5 h [46]: 2.3
concentration at 2191.5 h [47]: 18.5 ng/g
Kp at 2191.5 h [48]: 2.8
concentration at 2191.5 h [49]: 22.1 ng/g
concentration at 2191.5 h [50]: 36.2 ng/g
Kp at 730.5 h [51]: 2.5
AUC(0-t) at 2040 h [52]: 148 µg·h/mL
concentration at 2191.5 h [53]: 15.2 ng/mL
concentration at 730.5 h [54]: 634 ng/g
concentration at 2191.5 h [55]: 9.2 ng/mL
Compound: Cc1cc(/C=C/C#N)cc(C)c1Nc1ccnc(Nc2ccc(C#N)cc2)n1 [RILPIVIRINE]
Activity [22]: Non-toxic
